Target: VLA-4 (Homo sapiens, UniProt P05556+P13612)
Assay: VLA-4 direct binding assay (DBA)
Source text: (§1) Those skilled in the art routinely perform such assays, and can readily determine the activity of the experimental compound.
as §1

Sequence of VLA-4 (P13612 34-1032): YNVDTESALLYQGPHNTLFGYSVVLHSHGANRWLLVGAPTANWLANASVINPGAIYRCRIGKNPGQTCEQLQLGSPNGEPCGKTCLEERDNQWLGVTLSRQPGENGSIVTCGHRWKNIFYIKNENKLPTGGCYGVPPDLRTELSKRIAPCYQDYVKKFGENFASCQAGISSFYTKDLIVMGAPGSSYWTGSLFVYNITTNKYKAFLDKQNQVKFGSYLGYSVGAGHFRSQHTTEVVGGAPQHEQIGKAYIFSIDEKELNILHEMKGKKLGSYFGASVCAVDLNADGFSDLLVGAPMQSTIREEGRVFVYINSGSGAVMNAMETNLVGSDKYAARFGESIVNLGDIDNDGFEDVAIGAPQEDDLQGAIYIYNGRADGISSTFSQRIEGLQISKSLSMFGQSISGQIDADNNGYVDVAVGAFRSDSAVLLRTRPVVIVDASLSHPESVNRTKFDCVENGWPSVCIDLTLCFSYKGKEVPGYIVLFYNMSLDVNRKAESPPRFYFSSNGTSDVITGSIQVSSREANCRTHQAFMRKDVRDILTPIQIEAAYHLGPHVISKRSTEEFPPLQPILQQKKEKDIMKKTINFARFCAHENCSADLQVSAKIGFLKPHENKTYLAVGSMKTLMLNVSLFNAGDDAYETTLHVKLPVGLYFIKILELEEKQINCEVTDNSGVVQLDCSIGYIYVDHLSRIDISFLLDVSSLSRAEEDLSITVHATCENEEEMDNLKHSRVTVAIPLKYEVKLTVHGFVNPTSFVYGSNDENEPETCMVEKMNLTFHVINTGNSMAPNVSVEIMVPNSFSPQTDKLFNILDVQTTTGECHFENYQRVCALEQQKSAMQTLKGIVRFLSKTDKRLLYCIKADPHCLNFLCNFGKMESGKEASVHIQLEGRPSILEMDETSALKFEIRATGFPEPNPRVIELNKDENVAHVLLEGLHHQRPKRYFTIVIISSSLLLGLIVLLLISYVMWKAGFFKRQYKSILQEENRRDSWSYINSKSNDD
Sequence of VLA-4 (P05556 21-798): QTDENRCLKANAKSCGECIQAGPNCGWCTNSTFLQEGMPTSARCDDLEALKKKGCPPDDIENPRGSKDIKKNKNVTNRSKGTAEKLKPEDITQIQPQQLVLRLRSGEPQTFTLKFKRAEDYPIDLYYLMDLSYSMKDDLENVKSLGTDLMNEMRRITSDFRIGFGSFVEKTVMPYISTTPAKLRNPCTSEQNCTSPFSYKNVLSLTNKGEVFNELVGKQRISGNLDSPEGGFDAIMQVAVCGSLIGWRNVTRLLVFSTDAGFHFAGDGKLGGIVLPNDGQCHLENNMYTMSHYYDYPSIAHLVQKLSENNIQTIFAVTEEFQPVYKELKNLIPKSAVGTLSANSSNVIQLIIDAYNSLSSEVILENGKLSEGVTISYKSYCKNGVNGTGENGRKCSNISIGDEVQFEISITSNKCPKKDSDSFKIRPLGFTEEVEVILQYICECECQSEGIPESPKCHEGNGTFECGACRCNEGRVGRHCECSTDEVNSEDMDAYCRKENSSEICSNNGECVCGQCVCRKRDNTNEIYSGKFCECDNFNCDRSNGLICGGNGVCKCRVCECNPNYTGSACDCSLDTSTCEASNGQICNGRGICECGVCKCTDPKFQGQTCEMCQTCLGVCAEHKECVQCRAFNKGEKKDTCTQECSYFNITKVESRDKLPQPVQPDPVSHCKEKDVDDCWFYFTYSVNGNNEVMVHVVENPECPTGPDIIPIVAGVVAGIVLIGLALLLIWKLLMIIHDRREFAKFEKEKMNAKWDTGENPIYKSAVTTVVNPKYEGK

With CC(C)C[C@H](NC(=O)Cc1ccccc1)C(=O)N[C@@H](CC(=O)O)C(=O)N[C@H](C(=O)N1CCC[C@H]1C(=O)O)C(C)C [Phenylacetyl-Leu-Asp-Val-Pro] the IC50 was 2000 nM.

— patent US6552216B1, “Molecular model for VLA-4 inhibitors” (Biogen, Inc., priority 1996, dated 2003)
